Assays:
[1] = molecular target: T1, Muscarinic acetylcholine receptor M2 (Homo sapiens, UniProt P08172); experiment: Inhibition of [3H]NMS dissociation from muscarinic M2 receptor in Na,K,Pi buffer
T1 sequence (P08172 whole entry): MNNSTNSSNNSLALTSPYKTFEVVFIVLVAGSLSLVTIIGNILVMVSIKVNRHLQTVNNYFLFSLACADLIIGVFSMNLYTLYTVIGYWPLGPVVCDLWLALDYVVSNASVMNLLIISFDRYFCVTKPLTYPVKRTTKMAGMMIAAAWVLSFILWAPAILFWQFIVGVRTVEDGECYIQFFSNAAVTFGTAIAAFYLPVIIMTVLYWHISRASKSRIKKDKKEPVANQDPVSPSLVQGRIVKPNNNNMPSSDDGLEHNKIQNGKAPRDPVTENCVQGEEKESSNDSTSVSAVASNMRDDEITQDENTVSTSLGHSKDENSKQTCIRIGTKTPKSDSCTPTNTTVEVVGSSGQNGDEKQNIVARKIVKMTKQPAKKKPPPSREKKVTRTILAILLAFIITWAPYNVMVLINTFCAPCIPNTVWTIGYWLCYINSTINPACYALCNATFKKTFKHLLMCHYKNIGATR

[2] = Selectivity for muscle type nAChR over muscarinic M2 receptor in hepes buffer
[3] = molecular target: Acetylcholine receptor (Torpedo californica, UniProt P02710+P02712+P02714+P02718); experiment: Displacement of (+/-)-[3H]epibatidine from muscle type nAChR of Torpedo californica in hepes buffer; type: tissue-based, Tetronarce californica
[4] = molecular target: T1, Muscarinic acetylcholine receptor M2; experiment: Inhibition of [3H]NMS dissociation from muscarinic M2 receptor in hepes buffer

Sequence of Acetylcholine receptor (P02710 whole entry): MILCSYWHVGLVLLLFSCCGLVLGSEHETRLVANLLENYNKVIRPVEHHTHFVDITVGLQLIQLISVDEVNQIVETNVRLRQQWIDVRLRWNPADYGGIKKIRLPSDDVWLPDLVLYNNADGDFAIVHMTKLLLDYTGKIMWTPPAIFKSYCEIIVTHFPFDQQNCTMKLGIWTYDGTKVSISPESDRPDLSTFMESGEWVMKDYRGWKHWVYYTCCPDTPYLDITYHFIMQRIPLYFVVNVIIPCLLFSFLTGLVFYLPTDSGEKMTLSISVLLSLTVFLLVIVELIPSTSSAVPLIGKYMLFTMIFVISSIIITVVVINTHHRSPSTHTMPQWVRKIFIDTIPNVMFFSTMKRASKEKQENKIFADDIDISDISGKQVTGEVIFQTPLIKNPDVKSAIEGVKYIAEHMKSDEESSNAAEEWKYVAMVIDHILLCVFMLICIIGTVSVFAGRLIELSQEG
Sequence of Acetylcholine receptor (P02712 whole entry): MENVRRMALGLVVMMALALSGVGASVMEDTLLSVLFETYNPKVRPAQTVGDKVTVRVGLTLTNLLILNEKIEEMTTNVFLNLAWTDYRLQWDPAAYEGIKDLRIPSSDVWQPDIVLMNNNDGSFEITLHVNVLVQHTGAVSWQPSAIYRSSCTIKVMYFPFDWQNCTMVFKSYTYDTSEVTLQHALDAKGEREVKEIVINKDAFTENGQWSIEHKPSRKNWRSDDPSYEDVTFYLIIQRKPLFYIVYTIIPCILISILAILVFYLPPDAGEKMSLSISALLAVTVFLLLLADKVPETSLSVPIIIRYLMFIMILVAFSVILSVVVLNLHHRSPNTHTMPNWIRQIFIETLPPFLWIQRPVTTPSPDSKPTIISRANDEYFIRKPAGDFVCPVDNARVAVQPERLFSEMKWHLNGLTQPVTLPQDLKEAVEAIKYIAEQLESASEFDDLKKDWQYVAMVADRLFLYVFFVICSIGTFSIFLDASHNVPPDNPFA
Sequence of Acetylcholine receptor (P02718 whole entry): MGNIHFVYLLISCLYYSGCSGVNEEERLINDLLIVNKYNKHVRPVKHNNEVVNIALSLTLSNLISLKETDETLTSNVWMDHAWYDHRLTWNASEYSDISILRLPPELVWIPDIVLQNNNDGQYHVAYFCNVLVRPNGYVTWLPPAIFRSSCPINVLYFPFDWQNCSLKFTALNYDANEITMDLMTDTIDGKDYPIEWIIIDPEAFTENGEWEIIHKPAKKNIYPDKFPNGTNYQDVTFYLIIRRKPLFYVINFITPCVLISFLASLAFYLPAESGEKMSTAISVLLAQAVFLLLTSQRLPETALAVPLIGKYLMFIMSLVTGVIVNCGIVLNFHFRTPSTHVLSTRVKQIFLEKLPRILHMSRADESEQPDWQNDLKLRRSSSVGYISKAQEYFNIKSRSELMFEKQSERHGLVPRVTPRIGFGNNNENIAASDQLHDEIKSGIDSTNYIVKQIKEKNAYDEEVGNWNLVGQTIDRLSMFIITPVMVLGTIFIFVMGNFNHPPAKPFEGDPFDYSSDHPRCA
Sequence of Acetylcholine receptor (P02714 whole entry): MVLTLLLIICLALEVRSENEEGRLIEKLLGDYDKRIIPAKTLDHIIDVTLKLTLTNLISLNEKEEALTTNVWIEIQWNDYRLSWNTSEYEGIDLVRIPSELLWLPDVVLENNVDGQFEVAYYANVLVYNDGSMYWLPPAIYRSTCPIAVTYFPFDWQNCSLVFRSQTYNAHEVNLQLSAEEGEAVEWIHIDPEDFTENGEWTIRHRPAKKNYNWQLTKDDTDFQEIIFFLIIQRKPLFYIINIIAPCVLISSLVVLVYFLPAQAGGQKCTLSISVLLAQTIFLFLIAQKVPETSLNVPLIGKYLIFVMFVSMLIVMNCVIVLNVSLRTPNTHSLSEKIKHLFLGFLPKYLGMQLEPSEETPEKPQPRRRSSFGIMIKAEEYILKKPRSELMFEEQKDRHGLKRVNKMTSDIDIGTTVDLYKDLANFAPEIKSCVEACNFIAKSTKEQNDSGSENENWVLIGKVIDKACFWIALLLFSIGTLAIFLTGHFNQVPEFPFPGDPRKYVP

Row | Selectivity ratio [2] | EC50 [4] [nM] | Structure (SMILES) | EC50 [1] [nM] | Ki [3] [nM]
1 | 34 | 11200 | C[N+](C)(C)Cc1c2n(c3ccccc13)Cc1c(C[N+](C)(C)C)c3ccccc3n1C2 | 229 | 331
2 | 4.2 | 2290 | C=CC[N+](C)(C)Cc1c2n(c3ccccc13)Cc1c(C[N+](C)(C)CC=C)c3ccccc3n1C2 | 110 | 550
3 |  |  | C1=C2CN3CC[C@]45c6ccccc6N6[C@@H]7OCC=C8CN9CC[C@]%10%11c%12ccccc%12N([C@H](OC1)[C@@H]([C@H]64)[C@H]2C[C@H]35)[C@H]%10[C@H]7[C@H]8C[C@H]9%11 [CARACURINE V] | 437 | > 100000
4 | 1.5 | 16600 | CN(C)Cc1c2n(c3ccccc13)Cc1c(CN(C)C)c3ccccc3n1C2 | 447 | 10700
5 |  |  | C=CC[N+]12CC[C@@]34c5ccccc5N5[C@@H]6OCC=C7C[N+]8(CC=C)CC[C@]9%10c%11ccccc%11N([C@@H]%11OCC=C(C1)[C@H](C[C@@H]32)[C@@H]%11[C@H]54)[C@H]9[C@H]6[C@H]7C[C@@H]%108 (stereo partly drawn) [DIALLYLCARACURIE V] | 11.2 | 1510
6 |  |  | C[N+]12CC[C@@]34c5ccccc5N5[C@@H]6OCC=C7C[N+]8(C)CC[C@]9%10c%11ccccc%11N([C@@H]%11OCC=C(C1)[C@H](C[C@@H]32)[C@@H]%11[C@H]54)[C@H]9[C@H]6[C@H]7C[C@@H]%108 (stereo partly drawn) [DIMETHYLCARACURIE V] | 8.13 | 5250

From ChEMBL document CHEMBL1139652, “6H,13H-Pyrazino[1,2-a;4,5-a']diindole analogs: probing the pharmacophore for allosteric ligands of muscarinic M2 receptors” (Bioorg Med Chem Lett, 2006)
